Data set [1] relates to MRSA 103. The data set is described as follows: microbe, parasite or virus in culture. The format is cell-based, Staphylococcus aureus. An excerpt: (§1) The test strains (Gram-negative: E. coli ATCC 25922, E. coli k88, E. coli k99, E. coli 987, P. aeruginosa ATCC PAO1, Salmonella pullorum ATCC 7731, S. pullorum ATCC 7913, and S. typhimurium ATCC 14028; Gram-positive: S. aureus ATCC 29213, S. aureus ATCC 25923, S. epidermidis ATCC 12228, MRSA ATCC 43300, MRSA 544, MRSA 103, L. rhamnosus ATCC 8014, and L. rhamnosus 1.9021) were maintained at the School of Medicine in the Shenzhen Campus of Sun Yat-sen University. Mouse RBCs were extracted from a specific pathogen-free (SPF) grade mouse.
(§2) The peptides' antimicrobial effectiveness was evaluated using a method derived from a previous publication ([59]) and modified for use in this study. Single colonies were seeded and cultured in brain–heart infusion (BHI) medium at 37°C until log-phase growth after adjustment to OD600 = 0.4, which was followed by a 1000-fold dilution with phosphate-buffered saline (PBS). Then, in sterile 96-well plates, twofold serial dilutions of the peptides were added, followed by 50-µL aliquots of the bacterial cell solution. The ultimate concentrations of the antibacterial agents were 0.125–64 μM. Moreover, bacteria and PBS were added to the TSB as positive and negative controls, respectively. The plates were placed in an incubator set at 37°C for 18 hours. The trial was conducted a minimum of three times in sets of three. Successful completion of the experiment was confirmed by observing the turbidity of the positive control and clarity of the negative control culture medium. The MIC was defined as the lowest peptide concentration required to inhibit bacterial growth.

The test system of data set [2] is MRSA 544. The data set is described as follows: microbe, parasite or virus in culture. Format: cell-based, Staphylococcus aureus.
Description: as §1, §2

Data set [3] deals with MRSA 103. The data set is described as follows: microbe, parasite or virus in culture. The format is cell-based, Staphylococcus aureus. As to the method:
as §2
(§3) For MBC analysis, viable cells from all wells with no visible bacterial growth were determined on the BHI agar plates. After 24 hours of cultivation at 37°C, the MBC endpoint was defined as the minimum concentration at which 99.9% of the bacterial population was killed.
This is another data set of the same source.

For data set [4], the system named is MRSA 544. The data set is described as follows: microbe, parasite or virus in culture. Format: cell-based, Staphylococcus aureus. As to the method:
as §2, §3
This is another data set of the same source.

In data set [5] the test system is MRSA 544. Briefly: Time-kill kinetics. Format: cell-based, Staphylococcus aureus. As to conditions: 2 × MIC, 4 × MIC and 8 × MIC, 0–7 hours.
Description: MRSA 544 was cultured to the logarithmic phase (OD600 = 0.4) and diluted 1000-fold with PBS. […] At various periods (0, 5, 10, 15, 20, 25, 30, and 60 minutes), microbial suspensions were serially diluted (10-, 100-, and 1000-fold) with PBS, and 10 µL of the diluted suspension was plated on tryptic soy agar (TSA) medium. Single colonies of microorganisms were counted after 12-hour incubation at 37°C. The processing steps of vancomycin were the same as those of AMP W5, but with different concentrations (2 × MIC, 4 × MIC, and 8 × MIC) and periods (0, 1, 2, 3, 4, 5, 6, and 7 hours). Average values were calculated and plotted after six repetitions.
For data set [6], the system named is clinically isolated MRSA. Briefly: microbe, parasite or virus in culture.
Description: as §1
as §2, with “Successful completion of the experiment was confirmed by observing the turbidity of the positive control and clarity of the negative control culture medium.” left out

Data set [7] has as its system clinically isolated MRSA. The format is cell-based, Staphylococcus aureus. As to conditions: 18 h. As to the method: as §2, §3
In the next data set the test system is standard MRSA strains. Format: cell-based, Staphylococcus aureus. As to conditions: 18 h.
Description: as §1
as §2, with “Successful completion of the experiment was confirmed by observing the turbidity of the positive control and clarity of the negative control culture medium. The MIC was defined as the lowest peptide concentration required to inhibit bacterial growth.” left out

The subject of another data set is BALB/c mice. The data set is described as follows: In vivo safety assessment. Also on record: species or system mouse. The settings on record: 10 mg/kg intravenously, five days after injection. As to the method: The in vivo safety assessment and antibacterial activity analysis of the peptides were performed using a murine skin infection model wherein 25 SPF-grade 6- to 8-week-old female mice (BALB/c) were randomly divided into five cages (n = 5 in each cage). The animals were housed individually in ventilated cages (IVC), at a temperature of 20°C–24°C, humidity of 50%–60%, and a 12-hour day–night cycle.
Two groups of five mice were randomly divided and intravenously injected with 100 µL PBS or a 10 mg/kg solution of AMP W5 diluted with PBS. Five days after injection, all animals were euthanized. The weight of each mouse was determined from day 0 to day 5. Blood samples were collected to analyze hepatorenal damage, and an automatic biochemical analyzer was used to measure indicators, including ALT, AST, ALP, BUN, CREA, and LDH. The livers and kidneys of the mice were stained with hematoxylin/eosin (HE) for histological analysis.

The mark [8] stands for this setting: Staphylococcus aureus, MRSA, 18 h.
[9] abbreviates: Staphylococcus aureus, MRSA, 24 h.
Where [10] appears, read: clinically isolated MRSA strains, 37°C, 18 hours.

The structures appear in SMILES notation. Converted amounts (≈) assume the structure as drawn. Residues, ends and D or L forms follow the SMILES beside them.

Turning to `N=C(N)NCCC[C@H](NC(=O)CNC(=O)[C@H](CO)NC(=O)CNC(=O)[C@H](CCCNC(=N)N)NC(=O)[C@H](CCCNC(=N)N)NC(=O)[C@H](CCCNC(=N)N)NC(=O)[C@@H](N)Cc1c[nH]c2ccccc12)C(=O)N[C@@H](CCCNC(=N)N)C(=O)N[C@@H](CCCNC(=N)N)C(=O)N[C@@H](Cc1c[nH]c2ccccc12)C(N)=O` [W3] (H-WRRRGSGRRRW-NH2), the MIC in the data set on MRSA 103 [1] (103, 18 h) was greater than 64 µM; in the data set with MRSA 544 [2] (544, 18 h) it was greater than 64 µM. The MBC in the data set on MRSA 103 [3] (103, 24 h) was greater than 64 µM; against MRSA 544 [4] (544, 24 h), greater than 64 µM.
For `CN[C@H](CC(C)C)C(=O)N[C@H]1C(=O)N[C@@H](CC(N)=O)C(=O)N[C@H]2C(=O)N[C@H]3C(=O)N[C@H](C(=O)N[C@H](C(=O)O)c4cc(O)cc(O)c4-c4cc3ccc4O)[C@H](O)c3ccc(c(Cl)c3)Oc3cc2cc(c3O[C@@H]2O[C@H](CO)[C@@H](O)[C@H](O)[C@H]2O[C@H]2C[C@](C)(N)[C@H](O)[C@H](C)O2)Oc2ccc(cc2Cl)[C@H]1O` [Vancomycin, reference compound], in the data set with MRSA 544 [5], the “Bactericidal effect in time-kill assay” value is reported as “no signs of complete eradication even after 7 hours”. Further, the MIC against clinically isolated MRSA [6] (setting [8]), in the data set on MRSA 103 [1] (setting [8]) and against MRSA 544 [2] (setting [8]) was 0.5 µM (≈ 0.725 µg/mL) each time. In addition, the “MBC as multiple of MIC” value against MRSA 103 [3] (MRSA 103) and in the data set on MRSA 544 [4] (MRSA 544) was 8 × MIC throughout. Also, the MBC against MRSA 103 [3] (setting [9]) and against MRSA 544 [4] (setting [9]) was 4 µM (≈ 5.8 µg/mL) each time.
For the compound `N=C(N)NCCC[C@H](NC(=O)CNC(=O)[C@H](CO)NC(=O)CNC(=O)[C@H](CCCNC(=N)N)NC(=O)[C@H](CCCNC(=N)N)NC(=O)[C@H](CCCNC(=N)N)NC(=O)[C@H](Cc1c[nH]c2ccccc12)NC(=O)[C@@H](N)Cc1c[nH]c2ccccc12)C(=O)N[C@@H](CCCNC(=N)N)C(=O)N[C@@H](CCCNC(=N)N)C(=O)N[C@@H](Cc1c[nH]c2ccccc12)C(=O)N[C@@H](Cc1c[nH]c2ccccc12)C(N)=O` [W4] (H-WWRRRGSGRRRWW-NH2), the MIC is 16 µM (≈ 30.4 µg/mL) in the data set with MRSA 103 [1] (103, 18 h) and 16 µM (≈ 30.4 µg/mL) against MRSA 544 [2] (544, 18 h). Also, the MBC against MRSA 103 [3] (103, 24 h) was 32 µM (≈ 60.8 µg/mL); with MRSA 544 [4] (544, 24 h), 32 µM (≈ 60.8 µg/mL).
Take `N=C(N)NCCC[C@H](NC(=O)CNC(=O)[C@H](CO)NC(=O)CNC(=O)[C@H](CCCNC(=N)N)NC(=O)[C@@H](N)Cc1c[nH]c2ccccc12)C(=O)N[C@@H](Cc1c[nH]c2ccccc12)C(N)=O` [W1] (H-WRGSGRW-NH2): the MIC against MRSA 103 [1] (103, 18 h) is greater than 64 µM; in the data set with MRSA 544 [2] (544, 18 h), greater than 64 µM. Further, the MBC against MRSA 103 [3] (103, 24 h) was greater than 64 µM; against MRSA 544 [4] (544, 24 h) it was greater than 64 µM.
As for `N=C(N)NCCC[C@H](NC(=O)CNC(=O)[C@H](CO)NC(=O)CNC(=O)[C@H](CCCNC(=N)N)NC(=O)[C@H](CCCNC(=N)N)NC(=O)[C@@H](N)Cc1c[nH]c2ccccc12)C(=O)N[C@@H](CCCNC(=N)N)C(=O)N[C@@H](Cc1c[nH]c2ccccc12)C(N)=O` [W2] (H-WRRGSGRRW-NH2), the MIC against MRSA 103 [1] (103, 18 h) was greater than 64 µM; against MRSA 544 [2] (544, 18 h) it was greater than 64 µM. Besides, the MBC with MRSA 103 [3] (103, 24 h) was greater than 64 µM; against MRSA 544 [4] (544, 24 h), greater than 64 µM.
For `N=C(N)NCCC[C@H](NC(=O)CNC(=O)[C@H](CO)NC(=O)CNC(=O)[C@H](CCCNC(=N)N)NC(=O)[C@H](CCCNC(=N)N)NC(=O)[C@H](CCCNC(=N)N)NC(=O)[C@H](Cc1c[nH]c2ccccc12)NC(=O)[C@H](Cc1c[nH]c2ccccc12)NC(=O)[C@@H](N)Cc1c[nH]c2ccccc12)C(=O)N[C@@H](CCCNC(=N)N)C(=O)N[C@@H](CCCNC(=N)N)C(=O)N[C@@H](Cc1c[nH]c2ccccc12)C(=O)N[C@@H](Cc1c[nH]c2ccccc12)C(=O)N[C@@H](Cc1c[nH]c2ccccc12)C(N)=O` [W5] (H-WWWRRRGSGRRRWWW-NH2), the MIC in the data set with clinically isolated MRSA [6] (setting [10]) amounted to 8 µM (≈ 18.2 µg/mL); against MRSA 103 [1] (103, 18 h) it was 8 µM (≈ 18.2 µg/mL); in the data set with MRSA 544 [2] (544, 18 h), 8 µM (≈ 18.2 µg/mL); against standard MRSA strains it was 2 µM (≈ 4.55 µg/mL). Moreover, the MBC against clinically isolated MRSA [7] was found to be 8 µM (≈ 18.2 µg/mL); in the data set with MRSA 103 [3] (103, 24 h), 8 µM (≈ 18.2 µg/mL); against MRSA 544 [4] (544, 24 h), 8 µM (≈ 18.2 µg/mL). Also, in the data set with BALB/c mice, the “HE staining of liver and kidney” value was “no hepatotoxicity or nephrotoxicity”.
In the case of `CC[C@H](C)[C@H](NC(=O)CN)C(=O)NCC(=O)N[C@@H](C)C(=O)N[C@H](C(=O)N[C@@H](CC(C)C)C(=O)N[C@@H](CCCCN)C(=O)N[C@H](C(=O)N[C@@H](CC(C)C)C(=O)N[C@H](C(=O)N[C@H](C(=O)NCC(=O)N[C@@H](CC(C)C)C(=O)N1CCC[C@H]1C(=O)N[C@@H](C)C(=O)N[C@@H](CC(C)C)C(=O)N[C@H](C(=O)N[C@@H](CO)C(=O)N[C@@H](Cc1c[nH]c2ccccc12)C(=O)N[C@H](C(=O)N[C@@H](CCCCN)C(=O)N[C@@H](CCCNC(=N)N)C(=O)N[C@@H](CCCCN)C(=O)N[C@@H](CCCNC(=N)N)C(=O)N[C@@H](CCC(N)=O)C(=O)N[C@@H](CCC(N)=O)C(N)=O)[C@@H](C)CC)[C@@H](C)CC)[C@@H](C)O)[C@@H](C)O)C(C)C)C(C)C` [Melittin, reference compound], the MIC in the data set with clinically isolated MRSA [6] (setting [10]) came out at 4 µM (≈ 11.4 µg/mL); against MRSA 103 [1] (MRSA 103, twofold serial dilutions 0.125–64 μM, 96-well plates, 37°C, 18 hours, minimum of three times in sets of three) it was 4 µM (≈ 11.4 µg/mL); in the data set on MRSA 544 [2] (MRSA 544, twofold serial dilutions 0.125–64 μM, 96-well plates, 37°C, 18 hours, minimum of three times in sets of three), 4 µM (≈ 11.4 µg/mL). Besides, the “MBC as multiple of MIC” value against MRSA 103 [3] (MRSA 103) turned out to be 2 × MIC. The MBC was 8 µM (≈ 22.8 µg/mL) against MRSA 103 [3] (MRSA 103, BHI agar plates, 24 hours at 37°C, minimum concentration at which 99.9% killed) and 4 µM (≈ 11.4 µg/mL) in the data set on MRSA 544 [4] (MRSA 544, BHI agar plates, 24 hours at 37°C, minimum concentration at which 99.9% killed).

For the origin of these results see PMC11537005, “Antimicrobial activity of novel symmetrical antimicrobial peptides centered on a hydrophilic motif against resistant clinical isolates: in vitro and in vivo analyses” (Microbiology Spectrum, 2024).
